Data from publication PMC9772450, “Gel-forming antagonist provides a lasting effect on CGRP-induced vasodilation” (Frontiers in Pharmacology, 2022).
Read-outs that look alike come from different tables or passages of the source. One block for each compound: values may come before it.

Assays:
[1] = tested on: capsaicin-induced dermal blood flow; conditions: ref Sinclair et al., 2010; cited from earlier work
Description: It is known that anti-CGRP gepants could occupy a binding site close to the interface of the N-terminal domains of CLR and RAMP1, and act by allosteric regulation ([Miller et al., 2010]). Although the gepants compounds have low IC50 values in receptor activation assays in vitro, it is well documented that gepants need high concentrations to bloc ...

[2] = administered as a 25% gel depot; ref Oberg and Lamberts, 2016; cited from earlier work
Description: Our screening of long-acting antagonists has originally focused on lipidated peptides because lipidation is known to increase the half-lives of various peptides by enabling them to be bound by albumin and other serum proteins, therefore reducing elimination by kidneys and degradation by serum proteases ([Drucker et al., 2010]). […] This finding is consistent with earlier studies of benzoylated and lipidated CGRP8-37 analogs which ha ...

[3] = cited from earlier work
[4] = Visual (tube-tapping) assay of gel-forming capability and solubility; assay type: physicochemical; parameters: key to Gel-forming ability: Y: can form a liquid gel; N: lacks the ability to efficiently form a liquid gel
Description: (§1) To evaluate the ability of peptides to form gels in situ, we initially determined this tendency qualitatively based on visual examinations of peptide solutions using a tube-tapping method. In addition, we quantitatively determined the viscosity of select peptide solutions using a viscometer (Rheosense Inc; http://www.rheosense.com/products/viscometers) ([Yan and Pochan, 2010]). In the visual assay, aliquots of peptides were dissolved in an aqueous solution (i.e., de-ionized water, saline, or 5% glucose solution). The peptide that dissolved instantly and stayed as a clear solution without obvious macroscopic change in viscosity at 20 min after mixing was considered soluble. If macroscopic particles of peptides remained in the solution at 20 min after mixing, the peptide was considered insoluble.

[5] = Viscosity of peptide solutions, Rheosense viscometer; assay type: physicochemical; conditions: N = 5 per group, result in words
Description: as §1
In addition, we quantitatively determined the viscosity of ADE651 and control peptides using the Rheosense viscometer. The peptide solution was loaded onto a Rheosense viscometer chip, and the sample was injected at a constant flow rate through the flow channel with multiple pressure sensors that monitor the pressure drop from the inlet to the outlet. Because the pressure drop is correlated with the shear stress at the boundary wall, the instrument determines the rheological properties based on the standard principles of rheometry ([Yan and Pochan, 2010]).

[6] = Passage of peptide molecules through Centricon filters; assay type: physicochemical; conditions: Centricon 30,000 MW cutoff
Description: To evaluate whether gel-formation reduces the movement of peptide molecules in solution, we used the Centricon® filters (Millipore) to separate samples and the carriers based on their molecular mass. The sample is monomeric peptides, and the carrier is the self-assembled gel. One milligram aliquots of the peptides were first dissolved as 0.1% solution in 5% glucose, 0.1% solution in saline, 5% solution in 5% glucose, 10% solution in 5% glucose, and 20% solution in 5% glucose. Ten minutes later, the 5%, 10%, and 20% solutions were diluted to the 0.1% level. Aliquots of these solutions were sampled and dispensed into separate Centricon columns (30,000 MW cutoff), and the monomeric peptide and gel molecules were separated by centrifugation for 15 min (2000 x g). The level of peptide in the elutes was determined by specific EIAs (Phoenix Pharmaceuticals Inc.).

[7] = Release of ADE651 from gel solution in vivo (single-dose pharmacokinetics); parameters: species or system Sprague-Dawley rats; conditions: rat
Description: Single-dose pharmacokinetics of gel solution was investigated in male Sprague-Dawley rats. Rats received a peptide solution via the subcutaneous route. Blood samples were collected at pre-dose, 8 h, 1, 2, 4, and 8 days via a catheter that has been cannulated to the jugular vein (Charles River), and 0.5–1.0 ml of blood samples were collected at each time point. The animals were individually housed, plasma was obtained by centrifugation, and the peptide level in samples was determined by specific ADM2 EIAs (Catalogue no. EK-010–48, Phoenix Pharmaceuticals Inc.). It has a 0% cross-reactivity to ADM or CGRPs and has a sensitivity of 0.19 ng/ml. The Inter-assay variation was <15%.

[8] = tested on: CGRP-induced vasodilation; experiment: Dermal blood flow and vasodilation in rat hindlimbs, laser Doppler imaging; assay type: in vivo, Sprague-Dawley rats; conditions: rat hindlimb
Description: Adult Sprague Dawley male rats (body weight 150–200 g) were randomly divided into treatment groups. Animals were individually housed during the experiment. After acclimation, rats were anesthetized and stabilized under 2.5% isoflurane, and were placed on a heating pad. Testing articles were prepared just before the experiment and individually administered subcutaneously into the hindlimbs. Human β-CGRP (LifeTein LLC, Hillsborough, NJ) was dissolved in a saline solution, and the antagonist solution was prepared in a 5% glucose solution. […] In this experiment, the antagonist gel solution was administered at 0 h as a liquid solution shortly after dissolution to prevent issues associated with the formation of semi-solid gel when the peptide is dissolved at high levels. […] The amount of blood flow was determined by laser Doppler imaging as described earlier ([Van der Schueren et al., 2007]; [Benschop et al., 2014]). The laser Doppler scan series of the hindlimbs began with two baseline scans and was followed by two scans each at select time points. Data are reported as percent change from the average baseline scans.

[9] = target: T1, CLR/RAMP1 receptor (Homo sapiens, UniProt O60894+Q16602); experiment: HitHunter cAMP XS+ CALCRL-RAMP1 cAMP assay, antagonist mode; assay type: cell-based; conditions: agonist, cAMP Hunter CLR/RAMP1 cells
T1 construct: host or cells: CHO-K1 (cAMP Hunter cell line)
T1 sequence (Q16602 23-461): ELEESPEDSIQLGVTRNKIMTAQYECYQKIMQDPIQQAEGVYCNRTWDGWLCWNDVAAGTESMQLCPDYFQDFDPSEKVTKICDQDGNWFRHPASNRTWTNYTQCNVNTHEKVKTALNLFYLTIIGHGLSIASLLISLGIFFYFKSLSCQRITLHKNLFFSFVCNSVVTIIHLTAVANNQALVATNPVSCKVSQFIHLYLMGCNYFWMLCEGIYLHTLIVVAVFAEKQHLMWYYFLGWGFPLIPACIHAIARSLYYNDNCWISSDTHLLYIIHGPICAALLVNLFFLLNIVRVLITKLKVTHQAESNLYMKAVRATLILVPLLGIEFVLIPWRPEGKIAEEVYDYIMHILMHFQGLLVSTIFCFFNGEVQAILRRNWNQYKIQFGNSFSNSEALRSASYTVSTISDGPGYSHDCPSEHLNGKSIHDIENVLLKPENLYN
T1 sequence (O60894 27-148): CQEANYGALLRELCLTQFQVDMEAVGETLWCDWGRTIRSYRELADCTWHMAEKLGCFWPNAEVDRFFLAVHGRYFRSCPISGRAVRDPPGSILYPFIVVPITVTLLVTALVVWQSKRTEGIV
Description: The assay of the antagonistic activity of analogs was conducted by the Eurofins Discoverx using the HitHunter cAMP XS + assay as described earlier ([Bradley and McLoughlin, 2009]; [Chang and Hsu, 2019]). The dose-dependent inhibitory effect of antagonists was studied in duplicate, at 10 different concentrations. Determination of the half-maximal inhibitory concentration (IC50) was performed using a 10-point dose-response curve. The starting concentration was 10 μM, and it was serially diluted 3-fold, in DMSO. […] Using the Hit Hunter® assay (CALCRL-RAMP1 cAMP assay in the antagonist mode; https://www.discoverx.com/products/cell-line/cho-k1-calcrl-ramp1-gs-cell-line-95-0164c2), the eight compounds in Table 1 were assayed side-by-side once, and the IC50 was derived based on the standard assay of duplicate samples of a ten-point curve. In this homogenous, non-imaging assay, the activation of CLR/RAMP1 signaling was evaluated using the Enzyme Fragment Complementation (EFC) technology with β-galactosidase (β-Gal) as the functional reporter. The enzyme was split into two complementary portions: an enzyme acceptor and an enzyme donor. The enzyme donor is fused to cAMP and it competes with cAMP generated by cells
For binding to a cAMP-specific antibody. Active β-Gal is formed by complementation of exogenous enzyme acceptor to any unbound enzyme donor-cAMP. The active enzyme then converted a chemiluminescent substrate to generate a signal. Briefly, cAMP Hunter cell lines with the select receptor were expanded from freezer stocks ([Bradley and McLoughlin, 2009]), and cells were seeded in a total volume of 20 μL into 384-well microplates and incubated at 37°C for the appropriate time. […] Intermediate dilution of samples was performed to generate 4X sample in the assay buffer. Before the assay, media was aspirated from cells and replaced with 10 μL 1:1 HBSS/Hepes:cAMP XS + Ab reagent, and 5 μL of 4X compound was added to the cells and incubated for 30 min. […] Vehicle concentration was 1%.
The chemiluminescent signal was read with a PerkinElmer chemiluminescent plate reader. The compound activity was analyzed using a CBIS data analysis suite (ChemInnovation, CA). The percentage inhibition was calculated using the following formula: % Inhibition = 100% x (1 - (mean RLU of test sample - mean RLU of vehicle control)/(mean RLU of EC80 control - mean RLU of vehicle control)). Data were normalized to the maximal and minimal response observed in the presence of EC80 agonist and vehicle.

[10] = tested on: migraine; conditions: cited from earlier work
Description: Migraine is a common complex neurovascular disorder that is manifested as episodic and predominantly unilateral throbbing headache with hypersensitivity to light, sound, and movement ([Erdener and Dalkara, 2014]; [Schuster and Rapoport, 2016]). According to the World Health Organization, 324 million people worldwide suffer from incapacitating migraine in 2008. In ∼ one-third of patients, migraine headaches are accompanied by an aura involving neurological symptoms such as transient visual, sensory, or motor disturbances ([Goadsby et al., 2002]). In the US, it was reported that 15% of Americans ...

Compound: O=C(N[C@@H]1CC[C@@H](c2cccc(F)c2F)CN(CC(F)(F)F)C1=O)N1CCC(n2c(=O)[nH]c3ncccc32)CC1 [telcagepant, reference compound]
EC (90) to inhibit the capsaicin-induced increase in dermal blood flow [1]: ~909 nM

Compound: Lanreotide
Period over which the gel releases the monomer [2]: a month

Compound: adrenomedullin 2 [ADM2]
Resident time after subcutaneous injection ([3]; in vivo, sc): < 1 h

Compound: CCCCCCCCCCCCCCCC(=O)N[C@@H](CCCCN)C(=O)N[C@H](C(=O)N[C@@H](CCC(N)=O)C(=O)N[C@@H](CCCCN)C(=O)N[C@@H](CC(C)C)C(=O)N[C@@H](CO)C(=O)N[C@@H](C)C(=O)N1CCC[C@H]1C(=O)N[C@H](C(=O)N[C@@H](CC(=O)O)C(=O)N1CCC[C@H]1C(=O)N[C@@H](CO)C(=O)N[C@@H](CO)C(=O)N1CCC[C@H]1C(=O)N[C@@H](Cc1c[nH]cn1)C(=O)N[C@@H](CO)C(=O)N[C@@H](Cc1ccc(O)cc1)C(N)=O)C(C)C)C(C)C [ADE651]
Appearance of solution in saline at 6–20% ([4]; visual): cloudy | Solubility in 5% glucose solution ([4]; visual): soluble from 0.1% to 20% | Solubility in saline ([4]; visual): low solubility | Gel-forming ability ([4]; visual inspection of 11% peptide solutions, tube-tapping, 20 min after mixing): Y | Concentration at which the peptide solution forms a gel (becomes viscous) ([4]; visual, 20 min after dissolution, vial tilted 90° and tapped): 6–20% | Viscosity of 0.5% solution in 5% glucose ([5]; compared with water, saline, 5% glucose, 0.5% and […] ADM): significantly higher than that of all other solutions evaluated | Reduction of peptide level in the elutes from 5%, 10% and 20% solution groups compared to the 0.1% solution group ([6]; 2000 x g 15 min, dissolved in 5% glucose, diluted to 0.1% after 10 min, ADM2 EIA, triplicate samples): more than 98% | Peptide level in the elute from the 0.1% saline group versus 0.1% solution in 5% glucose group ([6]; ADM2 EIA, N = 3 per group, result in words): significantly lower | Tmax ([7]; male, Sprague-Dawley, sc, subcutaneous, 200 µL of 16% solution (32 mg), plasma, ADM2 EIA, three animals, read-out: Time of peak circulating level after administration): 8 h | Sustained presence in the circulation after subcutaneous injection ([7]; subcutaneous gel solution): > 1 week | Circulating level at 8 days after injection ([7]; subcutaneous, 16% solution (32 mg), plasma, ADM2 EIA, versus 0 h, result in words): significantly elevated | CGRP-induced increase in blood flow at the 5 h time point after ADE651 pretreatment ([8]; ADE651 8 mg in 8% solution s.c. at 0 h, CGRP 1 mg/100 µL at 4 h, N = 3): 6% | Blood flow before the CGRP treatment (4 h time point) versus control animals ([8]; ADE651 8 mg in 8% solution s.c. at 0 h, result in words): significantly lower

Compound: adrenomedullin [ADM, reference compound]
Viscosity of 0.5% and […] solutions in 5% glucose [5]: like that of 5% glucose solution | Resident time after subcutaneous injection ([3]; short half-life, ref Nagata et al., 2022): < 1 h

Solubility in 5% glucose solution ([4]; visual): soluble from 0.1% to 20% | EC80 of agonist in the cAMP assay [9]: 370 pM | Peptide level in elutes from 0.1, 5, 10 and 20% solution groups ([6]; 15 min centrifugation, specific EIA, N = 3 per group, result in words): similar
Compound: CSCC[C@H](NC(=O)CNC(=O)CNC(=O)[C@H](CO)NC(=O)[C@H](CCCNC(=N)N)NC(=O)[C@H](CO)NC(=O)[C@H](CC(C)C)NC(=O)[C@H](CC(C)C)NC(=O)CNC(=O)[C@H](C)NC(=O)[C@H](CC(C)C)NC(=O)[C@H](CCCNC(=N)N)NC(=O)[C@H](Cc1c[nH]cn1)NC(=O)[C@@H](NC(=O)[C@@H](NC(=O)[C@@H]1CSSC[C@H](NC(=O)[C@H](C)N)C(=O)N[C@@H](CC(N)=O)C(=O)N[C@@H]([C@@H](C)O)C(=O)N[C@@H](C)C(=O)N[C@@H]([C@@H](C)O)C(=O)N1)C(C)C)[C@@H](C)O)C(=O)N[C@H](C(=O)N[C@@H](CCCCN)C(=O)N[C@@H](CO)C(=O)N[C@@H](CC(N)=O)C(=O)N[C@@H](Cc1ccccc1)C(=O)N[C@H](C(=O)N1CCC[C@H]1C(=O)N[C@H](C(=O)N[C@@H](CC(N)=O)C(=O)N[C@H](C(=O)NCC(=O)N[C@@H](CO)C(=O)N[C@@H](CCCCN)C(=O)N[C@@H](C)C(=O)N[C@@H](Cc1ccccc1)C(N)=O)C(C)C)[C@@H](C)O)C(C)C)C(C)C [CGRP, calcitonin gene-related peptide]
Increase in blood flow at the 5 h time point in control animals ([8]; saline at 0 h, CGRP 1 mg/100 µL s.c. at 4 h, N = 3): > 25%

Compound: C[C@@H]1[C@H](c2ccccc2)C[C@H](NC(=O)c2cnc3c(c2)C[C@@]2(C3)C(=O)Nc3ncccc32)C(=O)N1CC(F)(F)F [ubrogepant]
Pain freedom at 2 h, share of acute migraine patients ([10]; 14.3% in the placebo group, ref Lipton et al., 2019, Switzer et al., 2022): 21.8% | Absolute difference in the pain-free rate versus placebo ([10]; ref Lipton et al., 2019, Switzer et al., 2022): 6.4–7.5%

Compound: CC1(C)O[C@@H]2[C@@H](CO[C@@]3(COS(N)(=O)=O)OC(C)(C)O[C@@H]23)O1 [topiramate]
Reduction of migraine days ([10]; ref Overeem et al., 2021): 1.11 migraine days
